How the values were obtained:
[1] = system: Murine bone marrow-derived macrophages; assay: M1/M2 differentiation of macrophages, Western blotting for iNOS and arginase I; format: cell-based; conditions: 24 hours treatment, then IFNγ (20 ng/ml) or IL-4 (20 ng/ml)
Method: FIG. 5 is a digital image of a Western blot for iNOS, Arginase I, and GAPDH in murine bone marrow-derived macrophages treated with compounds targeting TLR4 (LPS), STING (CDA), NOD2 (PGNECndss), TLR7 (Imiquimod), TLR9 (class A CpG), or RIGI (ppp5′dsRNA), then treated with IFNγ (20 ng/ml) or IL-4 (20 ng/ml).
Murine bone marrow-derived macrophages were treated for 24 hours with a range of immunological adjuvants targeting STING (CDA), NOD2 (PGNECndss), TLR7 (imiquimod), TLR9 (class A CpG), or RIGI (ppp5′dsRNA), then treated with IFNγ (20ng/ml) or IL-4 (20ng/ml) to direct M1 or M2 differentiation, respectively. Ligation of TLR4 (LPS) was a positive control. M1 differentiation was distinguished by expression of iNOS, and M2 differentiation by expression of arginase I as measured by Western blotting.

cervical dysplasia = conditions: added to excisional therapies, randomized clinical trials; cited from earlier work
papilloma [2] = format: in vivo, mice; conditions: for papilloma size: larger 3-15 mm papilloma, 25 μg injected on d0, d1, d7 and d8
Excerpt: Pdx-Cre^+/− (Stock190 014647, Jackson Laboratories, Bar Harbor, Me.), Kras^(G12D)+/− (Stock#008179, Jackson Laboratories), and Trp53^(R172H)+/− (Stock#01XM2, NCI Fredrick Mouse Repository) mice were crossed to generate Pdx-Cre^+/− Kras ^(G12D)+/− Trp53^(R172H)+/− that generate pancreatic tumors (Hingorani et al., Cancer Cell 7:469-483, 2005). At variable penetrance, mice develop papilloma of the face and anogenital region (Hingorani et al., Cancer Cell 7:469-483, 2005; Gades et al., Comp. Med. 58:271-275, 2008). Mice bearing papilloma with no evidence of pancreatic tumors and less than 90 days of age were accrued to this study. Masses were treated by injection of 25 μg of c-di-CDG (Invivogen, San Diego, Calif., Catalog No. tlrl-naldg), Imiquimod (Invivogen) or PBS vehicle.
STING ligands were administered into the papilloma by direct injection with a total dose of 25 μg administered in a 25 μl injection volume. In the control case, 25 μg of Imiquimod was administered using the same technique. For larger papillomas, the injection was split between different sites within the same growth. The total dose to the growth remained 25 μg in each case. The animals were retreated on day 7 with a second cycle of injections.
Rapid alterations in small papilloma to resemble normal skin were observed within 18 hours of treatment (FIGS. 2A and B). In pilot studies, mice bearing papilloma were randomly assigned to treatment with the STING ligand c-di-GMP (CDG) or PBS vehicle control. In an example of a mouse with two small papilloma on the face, one was treated by direct injection of CDG, and the other given vehicle control (FIG. 2A, left). The CDG-injected papilloma rapidly reverted to normal skin within 18 hours (FIG. 2A, right). […] Injection of STING ligand into histologically normal skin at distant sites or in normal mice had no observable effect (not shown).
In addition, very large papilloma was treated with two cycles of treatment separated by 1 week, resulting in dramatic tumor regression (FIG. 3A). […] We tested treatment of larger, 3-15 mm papilloma with STING ligands. […] Therefore, we developed a treatment course consisting of injections on d0 and d1, and again on d7 and d8 as the papilloma decreased in size (FIG. 3B). Mice were randomized to receive CDG, to conventional treatment with the TLR7 ligand imiquimod, or PBS vehicle.

papilloma [3] = assay: CD3+ T cell infiltration and histology of treated papilloma; format: in vivo, mice; conditions: for infiltrating CD3+ T cells in papilloma: 24 hours after injection of 25 μg
Method: FIGS. 4A-C are a series of digital images showing infiltration of T cells following treatment with STING ligand. […] Sections were stained for CD3 and DAPI nuclear counterstain. […] Both papilloma sites were harvested 24 hours later and stained for CD3 and DAPI nuclear counterstain on the i) treated and ii) untreated opposite side papilloma.
To investigate the effect of treatment on T cell infiltration, which we and others have shown play a role in clearance of advanced cancers following administration of STING ligands (Baird et al., Cancer Res. 76:50-61, 2016; Corrales et al., Cell Rep. 11:1018-1030, 2015), papilloma were stained for infiltrating CD3^+ T cells.

Molecule | M1 (iNOS) / M2 (arginase I) differentiation of macrophages [1] | rate of recurrence of cervical dysplasia (cervical dysplasia) | papilloma size (papilloma [2]) | infiltrating CD3+ T cells in papilloma (papilloma [3]) | further results
Nc1ncnc2c1ncn2[C@@H]1O[C@@H]2COP(=O)(O)O[C@H]3[C@@H](O)[C@H](n4cnc5c(N)ncnc54)O[C@@H]3COP(=O)(O)O[C@H]2[C@H]1O [CDA, cyclic diadenylate monophosphate] | prevented M2 differentiation by IL-4 without driving M1 differentiation |  |  |  | 
interferon alpha |  | neither approach impacts the rate of recurrence |  |  | 
CC(C)Cn1cnc2c(N)nc3ccccc3c21 [imiquimod] | can drive macrophages into either M1 or M2 differentiation | neither approach impacts the rate of recurrence | did not significantly affect the size of the papilloma | Few to no T cells were detected | 
Nc1nc2c(ncn2[C@@H]2O[C@@H]3COP(=O)(O)O[C@H]4[C@@H](O)[C@H](n5cnc6c(=O)[nH]c(N)nc65)O[C@@H]4COP(=O)(O)O[C@H]3[C@H]2O)c(=O)[nH]1 [CDG, cyclic diguanylate monophosphate] |  |  | significantly decreased papilloma size | CD3^+ T cells were found associated with the normalized skin epithelium | toxicity (papilloma [2]; 25 μg direct injection): non-toxic at these doses; effect of a single injection on larger papilloma (papilloma [2]; 3-15 mm papilloma, single injection): rapid loss of papilloma around the injection site, but these did not fully regress; appearance of injection site (papilloma [2]; 18 hours after injection into small papilloma): slight reddening; complete regression of papilloma (papilloma [2]; larger papilloma, injections on d0, d1, d7 and d8): complete regression of some papilloma; time for injected small papilloma to revert to normal skin (papilloma [2]; mouse with two small papilloma on the face, direct injection of 25 μg): ≤ 18 h; regression of experimental papilloma (papilloma [2]; small papilloma, direct injection of 25 μg): rapid, site-specific regression of experimental papilloma; T cells in normalized skin (papilloma [3]; 14 days following treatment): enriched in the normalized skin; T cell infiltration in treated versus untreated papilloma of the same mouse (papilloma [3]; mice with more than one papilloma, one treated, 24 hours): T cell infiltration and control only in the treated papilloma
